The test system of data set [1] is female mice with dilated cardiomyopathy (DCM). Description: Body composition by quantitative magnetic resonance (QMR, EchoMRI). The class given is in vivo, mouse. The source says:
(§1) Mice: Dilated cardiomyopathy (DCM) is a major cause of HF, which is associated with pathological dilation of the heart ventricles and declines in heart contractile or systolic function. A well-established, translational mouse model of DCM with reduced ejection fraction (rEF) fulfills the criteria of the American Heart Association Scientific Statement for Animal Models of Heart Failure was utilized in the examples below. The mice used for this study were randomly assigned female littermates with or without (DCM on a C57BL/6 background. DCM mice express a transgene dominant-negative CREB transcription factor specific to cardiomyocytes and consistently develop the progressive stages (A-D) of HF similar to those described for humans. In female mice with DCM renal function remains within a normal range up to the terminal HF stage, as measured by plasma BUN and creatinine. DCM+vehicle (n=28) and DCM+DRI (n=29) were compared to each other. A group of congenic WT mice (n=20) was used for reference. In sub-groups of 90-day old mice (n=8/group), terminal blood was collected via cardiocentesis with ethylenediaminetetraacetic acid (EDTA)-aprotinin syringes to prevent proteolysis of targeted proteins and dissected organs were weighed. The blood samples were centrifuged at 3000 rpm for 20 min at 4° C. Plasma samples were aliquoted and stored at −80° C. until analysis. All analysis and health/death reports were recorded by investigators and animal facility technicians who were blinded to the mouse genotype.
(§2) Aliskiren water was provided ad libitum throughout life.
Body Composition: Body composition was objectively quantified by a single-blinded and experienced operator. Bodyweight, free water (systemic extracellular water, ECW), total water, body fat, and lean mass were recorded longitudinally. Mice were measured every tenth day between 50-100 days using quantitative magnetic resonance (QMR) technology with an EchoMRI™ 4-in-1 Analyzer (Echo Medical Systems, Houston, Tex., USA). The machine was calibrated daily per standard operating procedure using the provided canola oil (54.3 g) phantom. Briefly, mice were weighed (Scout Pro SP401, Ohaus Corporation, Pine Brook, N.J., USA) and loaded into a tube restrainer specific to the system. Mice were fully conscious and minimally restrained throughout each 60-90 s recording and were returned to their home enclosure following measurement.

The conditions of data set [2]: humans; cited from earlier work.
Another data set deals with plasma aldosterone. Nature of the data set: Enzyme immunoassay of plasma aldosterone in treated DCM mice. The settings on record: DCM mice at 90 days, vs. untreated DCM control. Type of data set: in vivo, mouse.
Source text: as §1, with “The blood samples were centrifuged at 3000 rpm for 20 min at 4° C. Plasma samples were aliquoted and stored at −80° C. until analysis.” left out, “genotype. […]” for “genotype.”

For data set [3], the system named is female mice with dilated cardiomyopathy (DCM). Nature of the data set: Morphometric changes (heart and lung weight to body weight) at 90 days. Type of data set: in vivo, mouse. The note with it: 90 days of age.
Source text: as §1, with “The blood samples were centrifuged at 3000 rpm for 20 min at 4° C. Plasma samples were aliquoted and stored at −80° C. until analysis.” left out, “genotype. […]” for “genotype.”

The target in another data set is T1, mouse renin (Mus musculus, UniProt P06281).
T1 construct: Renin enzymatic activity from EDTA-aprotinin supplemented mouse plasma samples; from tissue
T1 sequence (P06281 72-402): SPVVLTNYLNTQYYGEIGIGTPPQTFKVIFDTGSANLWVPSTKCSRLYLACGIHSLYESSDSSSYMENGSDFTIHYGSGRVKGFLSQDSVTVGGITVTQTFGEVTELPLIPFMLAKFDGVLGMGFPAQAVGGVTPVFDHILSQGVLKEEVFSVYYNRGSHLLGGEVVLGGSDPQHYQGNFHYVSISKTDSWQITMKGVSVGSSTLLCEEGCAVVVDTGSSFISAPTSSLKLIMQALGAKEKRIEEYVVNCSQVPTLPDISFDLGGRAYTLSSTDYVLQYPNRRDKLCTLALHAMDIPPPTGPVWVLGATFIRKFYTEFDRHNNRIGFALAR
Nature of the data set: Plasma renin activity assay (FRET) in plasma of treated DCM mice. The class given is in vivo. The note with it: DCM mice at 90 days, vs. untreated DCM control. As to the method:
Plasma samples were aliquoted and stored at −80° C. until analysis.

Data set [4] concerns female mice with dilated cardiomyopathy (DCM). Description: Kaplan-Meier survival of female mice with DCM. The class given is in vivo, mouse.
Source text: as §1, §2
Statistical Analysis: Statistical analyses were performed with GraphPad Prism 7.04 software (GraphPad Software, La Jolla, Calif., USA) using Student's t-test, one-way ANOVA, or two-way ANOVA with Tukey's multiple comparisons test (unless otherwise indicated) and Pearson's correlation. Survival was analyzed using Kaplan-Meier curves with the Mantel-Cox test. Differences were considered significant if p≤0.05. Data are represented as mean±SE.

For data set [5] the test system is unchanged. Nature of the data set: Echocardiography at 90 days in DCM mice. The class given is in vivo, mouse. The settings on record: 90 days of age.
The conditions of data set [6]: 100 mg/kg/day orally via drinking water, throughout the treatment period.
Protocol: Dose calculations were based on an average consumption of 5 mL of water/day/mouse. […] The oral dose was chosen to closely mimic the human route of delivery, while not altering the blood pressure, associated with elevated plasma Ang II-aldosterone levels, given the low bioavailability of the drug in rodents. […] The administration was started at 50 days of age to coincide with the previously identified timeline of increased renin activity and development of stage B HF in female DCM mice]. […] All untreated mice (WT and DCM+vehicle) received ad lib 3 ppm hyperchlorinated facility water via an automated watering system (Edstrom, Waterford, Wis., USA).

Turning to `COCCCOc1cc(C[C@@H](C[C@H](N)[C@@H](O)C[C@H](C(=O)NCC(C)(C)C(N)=O)C(C)C)C(C)C)ccc1OC` [aliskiren, aliskiren hemifumarate], the “systemic extracellular water (ECW)” value in data set [1] (100 days of age, QMR) is given as “significantly higher in DCM+vehicle vs. DCM+DRI mice”. For the same compound, in data set [1] (100 days, QMR), the “combined fat and lean mass (wasting/cachexia)” value is “combined losses of fat and lean mass in DCM control mice by 100 days relative to WT (p<0.0001) and DCM+DRI mice”; the lean body mass result was “significant decline in lean body mass in DCM control mice at 100 days, consistent with sarcopenia, by comparison to DCM+DRI and WT mice”. Moreover, in data set [1] (DCM+DRI vs. DCM+vehicle), the “development of Stage C HF / ECW accumulation (edema)” value is listed as “delayed development of Stage C HF”. Further, in data set [1] (at 90 days), the body weights result is listed as “not significantly different between groups”. For the same compound, the body weights result in data set [1] (at 100 days) was “weights appeared to decline in DCM+vehicle controls compared to WT and DCM+DRI mice”. The body fat entry in data set [1] (through 100 days, QMR) is reported as “maintenance of fat levels similar to WT through 100 days”. Besides, the bioavailability result in data set [2] is “low”. In addition, the plasma aldosterone levels result with plasma aldosterone is recorded as “not modulated by treatment”. Further, the “reduction of the gross increase in cardiac weight of control (DCM+vehicle) mice” value in data set [3] was found to be 20.4%. The plasma renin activity result on mouse renin was “significantly reduced elevated plasma renin activity to normal levels”. In addition, the “survival gain expressed as human years” value in data set [4] (assuming an 80-year lifespan) was 5.6 human years. In data set [4] (female DCM mice, 100 mg/kg/day from 50 days of age, control 103 days), this compound had a median survival of 110 days. Further, the “increase in survival vs. control DCM mice” value in data set [4] (female DCM mice, median survival +DRI vs. control) turned out to be 7%. For the same compound, the “absolute increase in EF vs. DCM+vehicle” value in data set [5] turned out to be 5%. The heart rate in data set [5] (anesthetized, control 419±10) is 469±14 bpm. In data set [5] (vs. DCM control), the “cardiac output (CO; mL/min)” value is on record as “improved”, the “ejection fraction (EF %)” value is recorded as “improved” and the “fractional shortening (FS %)” value was “improved”. The “side effects or abnormal clinical observations” value in data set [6] is listed as “no side effects or abnormal clinical observations”.

The values are drawn from patent US20210263120A1, “METHOD OF PERSONALIZED TREATMENT FOR CARDIOMYOPATHY AND HEART FAILURE AND ASSOCIATED DISEASES BY MEASURING EDEMA AND CACHEXIA/SARCOPENIA” (priority 2018, published 2021).
